≈ marks a conversion by molar mass, not a printed value. Structures can show the parent of a compound that is named as a salt. Where two headings read alike, the source gives them in different places.
What was measured:
human TRPA1 = human TRPA1 (Homo sapiens, UniProt O75762); assay: Inhibition of the TRPA1 ion channel, whole cell patch configuration (Example 1); type: cell-based; details: current activation 10 µM AITC, read-out: Human TRPA1 IC50 Inward Current
Protocol: Compounds of Formula (Ia) inhibit the TRPA1 channel, as measured using the method of Example 1. […] Data for TRPA1 inhibition and for TRPA1 selectivity was obtained by this method for the indicated compounds of Formula (Ia), with the relevant data included in Tables 1a - f below. All currents were recorded in whole-cell configuration using EPC-9 and EPC-10 amplifiers and Patchmaster software (HEKA). […] The standard pipette solution consisted of 140mM CsAsp, 10 mM EGTA, 10 mM HEPES, 2.27 mM MgCl2, 1.91 mM CaCl2, 4 mM MgATP, and 0.1-0.3 mM Na2GTP, with pH adjusted to 7.2 with CsOH. In addition, a solution containing 145 mM CsCl, 10 mM HEPES, 10 mM EGTA and 1 mM MgCl2 (pH 7.2 adjusted with CsOH) can be used. The standard bath solution contained 150 mM NaCl, 10 mM HEPES, 10 mM glucose, 4.5 mM KCl, 1 mM EGTA, 3 mM MgCl2, with pH adjusted to 7.4 with NaOH. In some instances, 2 mM CaCl2 was added in place of EGTA and the concentration of MgCl2 was reduced to 1 mM.
Data were collected either by continuous recordings at -60 mV or by applying voltage ramps from a holding potential of 0 mV every 4 s. Continuous recordings were collected at 400 Hz and digitally filtered off-line at 10 Hz for presentation. Voltage ramps were applied from - 100 mV to 100 mV over the course of 400 ms, and data were collected at 10 kHz and filtered at 2.9 kHz. Inward and outward currents were analyzed from the ramps at -80 and 80 mV, respectively. Liquid junction potential correction was not used.
Solutions were switched using a gravity-fed continuous focal perfusion system. To achieve rapid temperature changes, two temperature control, and perfusion systems were employed simultaneously. For temperatures ≥ 22°C, a Warner Instruments bipolar temperature controller (TC-344B) and inline heater (SHM-8) were used. […] Temperatures were confirmed using a thermistor (Warner Instruments, TA-29), with temperatures at the recorded cell estimated to be within +/- 2°C of those reported.
The antagonist effects of compounds of Formula (Ia) against human TRPA1 ("hTRPA1") and for some compounds rat TRPA1 ("rTRPA1") in a whole cell patch configuration were evaluated using the in vitro assay described above. The current activation tested was 10 µM AITC, and the tested concentrations ranged from 5 µM and 500 nM. Table 1a (Comparative Compounds)

rat = assay: Rodent cold plate pain model, Complete Freund's Adjuvant (Example 4); type: in vivo; details: cold plate 1 °C, Figures 1 and 2
Protocol: CFA-induced pain test method reported in del Camino et al., J. Neurosci., 30 (45):15165-15174. Briefly, the right hind paw is sensitized to cold temperature (allodynic) by administering 0.1 mL of Complete Freund's Adjuvant (CFA) to that paw. Two to four days later, the time it takes for the animal to lift its CFA-injected paw from the cold surface is recorded compared to its un-injected normal left hind paw. […] To avoid tissue damage, the maximum cut-off time is five minutes. Animals that are allodynic (average PWL to the first three pain behaviors <150 seconds for the CFA-injected hind paw: ∼ ≥50% difference between the normal and CFA-injected paw) are included in the study and subsequently randomized across treatment groups. The following day, the animals in some groups are dosed with a test compound under blinded conditions. Following the one to two hour pre-treatment time, the post-dose PWL readings are taken again. The efficacy of the drug treatment is assessed by comparing the PWL in the drug treatment animals to those that receive the vehicle.

[1] = system: Female Sprague Dawley rats; assay: Rodent acute tolerability test with liver function tests (Example 5); type: in vivo, rat; design: key to Alterations in LFT: (↔) indicates blood levels of markers for potential liver damage within normal range; (↑) indicates blood levels of markers for potential liver damage elevated above normal range; details: for Alterations in LFT / LFT: % upper normal range ALT serum levels / LFT: % upper normal range AST serum levels: single IV bolus dose 100 mg/kg, about 24 hours post dose
Protocol: Compounds of Formula (Ia) were assessed for acute tolerability in a rodent model at dose levels ranging from 100 - 200 mg/kg based upon the minimum efficacious dose of each compound. Female Sprague Dawley rats were administered up to a 10 mL/kg dose volume of each compound in 0.9% saline at appropriate concentrations as an intravenous bolus via the lateral tail vein. The animals were observed immediately post dose and for up to twenty four hours post dose and clinical observations were recorded. Additionally, approximately twenty four hours post dose animals were euthanized and blood taken for serum chemistry analysis with a focus on liver function tests (LFTs). The maximum tolerated single dose and LFT results are summarized in Table 3, where (↔) indicates blood levels of markers for potential liver damage within normal range and (↑) indicates blood levels of markers for potential liver damage elevated above normal range. Referring to the data in Table 3, LFT blood levels of markers for potential liver damage remained within normal range for the compounds of Formula (Ia), while LFTs were elevated for Comparator Compounds including 5-10 fold elevation above normal for ALT and AST blood levels observed upon administration of Comparative Compound 1. […]

[2] = Single-dose toxicity studies in rats (Example 7); type: in vivo; details: rat, in vivo; single IP administration 100 mg/Kg, rats; read-out: plasma Cmax
Protocol: (§1) In one single dose PK study conducted in fed and fasted rats, oral administration of Comparative Compound 2 in 30% HPCD produced adverse clinical signs in some of the fasted rats only.
(§2) Intravenous administration of Comparative Compound 2 (a nanosuspension formulation in 0.5% polysorbate 80 and 0.1% Poloxamer 188 and 0.8%NaCl) at dose levels of 3, 10, and 30 mg/kg as a single slow bolus (∼2 min) to male SD rat was well-tolerated.
(§3) Intravenous administration of Compound 1-B as a single, 30-minute infusion to SD female rats was well-tolerated at dose levels up to 300 mg/kg. No adverse clinical signs were observed concerning Compound 1-B.
(§4) Intravenous administration of Compound 5-T as a single, 30-minute infusion to SD female rats was well-tolerated at dose levels up to 300 mg/kg. No adverse clinical signs were observed concerning Compound 5-T.
(§5) A single oral dose administration of Compound 5-T in a Spray Dried Dispersion (SDD) formulation (a suspension of SDD powder) at nominal doses of 3, 30, 100, and 300 mg/kg to fed female Sprague Dawley rats were well-tolerated. No adverse clinical signs were observed concerning Compound 5-T.

rats [3] = assay: Single-dose toxicity studies in rats (Example 7); type: in vivo
Protocol: as §1, §2, §3, §4, §5

[4] = Aqueous solubility in buffered solutions, HPLC (Example 2); type: physicochemical; details: kinetic from dmso stock, ambient temperature
rats [5] = assay: Rodent formalin pain model (Example 3); type: in vivo; details: rat; for Minimal Efficacious Dose of Compound in Formalin Model: IV, statistically significant difference vs vehicle at 0 - 2 min (p≤0.05); for Duration of Pain Behavior: first two minutes after formalin, vehicle 88.6
Protocol: Compounds of Formula (Ia) are active in rodent models of pain induced by direct activation of the TRPA1 channel with intraplantar injection of the TRPA1 agonist formalin. Compounds of Formula (Ia) were tested in the formalin-induced pain test reported by Abbott et. al. Pain. 1995 Jan;60(1):91-102. Dubuisson et al. describe a method for assessing pain and analgesia in rats. Briefly, dilute formalin (50 µL of 3 % formalin) is injected into the plantar surface of the hind paw. […] The individual responsible for counting the pain behaviors in a particular study is blinded to the treatment groups.
Table 2 is a data table showing the results from testing compounds of Formula (Ia) in the rodent formalin-induced pain model described in […]. Rats were treated with the compounds of Formula (Ia) at various doses (0.1, 0.3, 1, 1.2, 3, 4, 10, or 30 mg/Kg IV) or with a control composition containing the vehicle (i.e., without a compound of Formula (Ia)). Pain behaviors (flinch, lift, lick, bite) were monitored following intraplantar formalin injection. Referring to Table 2, the minimum effective dose was derived from dose resulting in statistically significant difference in behavior at 0 - 2 min time period as compared with vehicle (p≤0.05).

[6] = sodium bicarbonate buffer in water for injection/5% dextrose, pH 9.0, 50 mM sodium bicarbonate, read-out: pH 9.0 aqueous solubility
[7] = sodium phosphate buffer in water for injection/5% dextrose, pH 7.4, 75 mM sodium phosphate, read-out: pH 7.4 aqueous solubility

Sequence of human TRPA1 (O75762 whole entry): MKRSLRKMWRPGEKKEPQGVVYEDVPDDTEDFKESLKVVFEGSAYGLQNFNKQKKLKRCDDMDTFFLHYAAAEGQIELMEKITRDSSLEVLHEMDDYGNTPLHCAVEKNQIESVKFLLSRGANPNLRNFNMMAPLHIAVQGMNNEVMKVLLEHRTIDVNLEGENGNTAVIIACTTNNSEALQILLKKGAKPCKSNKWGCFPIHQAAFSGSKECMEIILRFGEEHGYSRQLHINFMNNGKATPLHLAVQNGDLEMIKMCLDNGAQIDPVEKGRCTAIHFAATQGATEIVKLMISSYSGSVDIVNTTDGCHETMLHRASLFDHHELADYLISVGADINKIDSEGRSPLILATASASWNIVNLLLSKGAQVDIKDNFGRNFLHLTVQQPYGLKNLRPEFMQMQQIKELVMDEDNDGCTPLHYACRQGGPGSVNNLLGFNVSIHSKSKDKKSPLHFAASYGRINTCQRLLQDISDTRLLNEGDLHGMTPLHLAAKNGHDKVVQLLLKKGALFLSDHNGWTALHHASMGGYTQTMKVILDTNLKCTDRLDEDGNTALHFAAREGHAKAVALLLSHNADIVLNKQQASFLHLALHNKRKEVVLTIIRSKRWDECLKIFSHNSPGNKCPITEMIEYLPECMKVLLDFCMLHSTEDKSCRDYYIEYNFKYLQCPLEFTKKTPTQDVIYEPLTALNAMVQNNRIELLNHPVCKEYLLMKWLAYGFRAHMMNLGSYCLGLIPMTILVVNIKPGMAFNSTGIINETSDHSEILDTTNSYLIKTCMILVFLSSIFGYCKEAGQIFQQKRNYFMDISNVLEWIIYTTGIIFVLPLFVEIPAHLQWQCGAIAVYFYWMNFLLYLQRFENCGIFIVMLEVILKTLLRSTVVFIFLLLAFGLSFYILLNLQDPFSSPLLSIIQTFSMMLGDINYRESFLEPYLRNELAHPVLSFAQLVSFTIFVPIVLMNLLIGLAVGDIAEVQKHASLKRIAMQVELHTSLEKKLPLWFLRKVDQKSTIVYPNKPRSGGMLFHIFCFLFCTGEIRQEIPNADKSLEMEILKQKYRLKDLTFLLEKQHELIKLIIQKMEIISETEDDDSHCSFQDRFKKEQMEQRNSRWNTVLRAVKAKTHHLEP

| Compound | IC50 (human TRPA1) | Paw Withdrawal Latency, CFA cold allodynia (rat) | Minimal Efficacious Dose of Compound in Formalin Model (rats [5]) | Duration of Pain Behavior (rats [5]; dose 0.3 mg/kg IV) | Alterations in LFT [1] | LFT: % upper normal range ALT serum levels [1] | LFT: % upper normal range AST serum levels [1] | solubility kinetic at 24 h [4, 6] | solubility kinetic at 24 h [4, 7] | also measured |
| --- | --- | --- | --- | --- | --- | --- | --- | --- | --- | --- |
| C[C@H]1CCCN1c1ncc(-c2cccc(NC(=O)Cn3cnc4c3c(=O)n(C)c(=O)n4C)n2)cn1 [Comparator 2, reference compound] | 76 to 100 nM | significantly less potency | – | – | – | – | – | – | – | serum biomarkers of hepatotoxicity ([1]; animal studies of Example 5): did not elevate the serum biomarkers of hepatotoxicity; Cmax [2]: ~110 µg/mL; tolerability (rats [3]; IV single slow bolus, nanosuspension formulation, 3, 10, and 30 mg/kg, male SD rat): well-tolerated; clinical observations (rats [3]; IV single slow bolus, nanosuspension formulation, all three dose levels (3, 10, 30 mg/kg), ~1hr postdose, male SD rat): Mild flushing/mild swelling of the ears; clinical signs (rats [3]; single IP administration 100 mg/Kg, rats, approximately 30 minutes to 4 hours): mild to moderate lethargy; adverse clinical signs (rats [3]; single oral dose in 30% HPCD, 50 mg/kg and 100 mg/kg, fasted female rats only (two of three and one of three)): labored breathing and red urine; solubility kinetic at 24 h ([4]; buffered solution (sodium acetate buffer), pH 4.0, 50mM sodium acetate in 5% dextrose, read-out: pH 4.0 aqueous solubility): 9 µg/mL (≈ 18.9 µM); solubility kinetic at 24 h ([4]; buffered solution (sodium bicarbonate buffer), pH 9.0, 50 mM sodium bicarbonate, read-out: pH 9.0 aqueous solubility): 10 µg/mL (≈ 21 µM); solubility kinetic at 24 h ([4]; buffered solution (sodium phosphate buffer), pH 7.4, 75 mM sodium phosphate, read-out: pH 7.4 aqueous solubility): 7 µg/mL (≈ 14.7 µM) |
| CC(C(=O)N(COP(=O)(O)O)c1cccc(-c2cnc(N3CCCC3C(F)(F)F)nc2)n1)n1cnc2c1c(=O)n(C)c(=O)n2C (stereo not drawn) [Compound 1-A, phosphate, sodium salt] | > 100 nM | reversal of CFA Cold Allodynia | 1.2 mg/kg | 77.7 s | ↔ | <100%/<100% | <100%/<100% | > 1000 µg/mL | > 1000 µg/mL | Duration of Pain Behavior (rats [5]; dose 1.2 mg/kg IV): 43.3 s; Duration of Pain Behavior (rats [5]; dose 4 mg/kg IV): 19.8 s |
| C[C@@H](C(=O)N(COP(=O)(O)O)c1cncc(-c2cnc(N3CCC[C@H]3C(F)(F)F)nc2)n1)n1cnc2c1c(=O)n(C)c(=O)n2C [Compound 5-S, ((S)-2-(1,3-dimethyl-2,6-dioxo-1,2,3,6-tetrahydro-7H-purin-7-yl)-N-(6-(2-((S)-2-(trifluoromethyl)pyrrolidin-1-yl)pyrimidin-5-yl)pyrazin-2-yl)propanamido)methyl dihydrogen phosphate] | > 100 nM | – | 3 mg/kg | 69.8 s | ↔ | <100%/<100% | <100%/<100% | > 1000 µg/mL | > 1000 µg/mL | Duration of Pain Behavior (rats [5]; dose 1 mg/kg IV): 52.3 s; Duration of Pain Behavior (rats [5]; dose 3 mg/kg IV): 8.4 s; Duration of Pain Behavior (rats [5]; dose 10 mg/kg IV): 0 s |

Reference: EP2945947B1, “INHIBITING THE TRANSIENT RECEPTOR POTENTIAL A1 ION CHANNEL” (Merck Sharp & Dohme Corp., priority 2013, dated 2014)
